Data from PubChem BioAssay (NCI).
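These data come from cells grown in 96-well plates and exposed to compound for 48 hours at five concentrations. Here, GI50 denotes the concentration required for 50% inhibition of growth. TGI denotes the concentration required for complete inhibition of growth.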

Key:
Experiment in all cases: inhibition of tumour cell growth, NCI panel, 48 h
[1] = tested on: SNB-75 CNS
[2] = tested on: HT29 colon
[3] = tested on: SF-268 CNS
[4] = tested on: TK-10 renal
[5] = tested on: 786-0 renal
[6] = tested on: NCI-H460 lung
[7] = tested on: LOX IMVI melanoma
[8] = tested on: M14 melanoma
[9] = tested on: OVCAR-4 ovarian
[10] = tested on: NCI-H226 lung
[11] = tested on: NCI-H23 lung

SMILES	TGI [1]	TGI [2]	TGI [3]	TGI [4]	TGI [5]	TGI [6]	TGI [7]	TGI [8]	TGI [9]	TGI [10]	TGI [11]	GI50 [11]	GI50 [3]	GI50 [4]	GI50 [6]	GI50 [7]	GI50 [10]
O=C1CCC(=O)N1n1c(Cc2ccccc2)n[nH]c1=O	> 100 µM	> 100 µM	> 100 µM	> 100 µM	> 100 µM	> 100 µM	> 100 µM	> 100 µM	> 100 µM	> 100 µM							
CC1=C(C)[C@@]2(C)O[C@@]2(C)O[C@@]2(C)O[C@@]12C	> 100 µM	> 100 µM	> 100 µM	> 100 µM			> 100 µM	> 100 µM	> 100 µM	> 100 µM	> 100 µM						
FC(F)(F)c1cc(Cl)cnc1N/N=C(/c1ccccc1)c1ccccn1	3.33 µM	20.5 µM	11.3 µM		16.4 µM	15 µM		5.04 µM	29.4 µM	8.03 µM	14.4 µM						
O=C(O)CN(CC(=O)O)C1CCCCC1N(CC(=O)O)CC(=O)NCCN=C=S (configuration not stated)		> 100 µM	> 100 µM	> 100 µM		> 100 µM	> 100 µM	> 100 µM		> 100 µM	> 100 µM						
Cc1cc(N(CCC#N)CCC#N)ccc1/C(N=Nc1ccc(Cl)cc1)=N\NC(=O)c1ccccc1	> 100 µM	47.6 µM	> 100 µM	> 100 µM	> 100 µM	> 100 µM		> 100 µM	> 100 µM	> 100 µM	> 100 µM						
CCCNC1=C2CC(C)CC(OC)[C@@H](O)[C@H](C)/C=C(\C)C(OC(N)=O)C(OC)/C=C\C=C(/C)C(=O)NC(=CC1=O)C2=O (some centres not stated)		10.9 µM	27.1 µM	> 100 µM	> 100 µM	29.4 µM	0.614 µM		> 100 µM	5.21 µM	23 µM	0.0639 µM	0.134 µM	11.6 µM	0.0541 µM	0.0466 µM	0.244 µM
CNC(=O)C(C)C1CCC2(C)C=CC(=O)C(C)=C2C1O (configuration not stated)	> 100 µM	> 100 µM	> 100 µM			> 100 µM	> 100 µM		> 100 µM	> 100 µM	> 100 µM						
COc1ccc(CNc2nc(NCc3ccc(OC)c(OC)c3)nc(NC3CCCCC3)n2)cc1	> 100 µM	> 100 µM		> 100 µM	> 100 µM	> 100 µM	> 100 µM	> 100 µM	> 100 µM	> 100 µM	52.2 µM						
CC[C@@]1(C[C@H]2C[C@@]3(C(=O)OC)c4[nH]c5ccccc5c4CCN3C2=O)COC2(CCCCC2)O1	> 100 µM	> 100 µM	> 100 µM	> 100 µM	> 100 µM	> 100 µM	> 100 µM	> 100 µM	> 100 µM		> 100 µM						
O=C1CCC23CC(C=CC=C12)n1c(=O)n(-c2ccccc2)c(=O)n13 (configuration not stated)	> 100 µM	> 100 µM	> 100 µM			> 100 µM	> 100 µM		> 100 µM	> 100 µM	> 100 µM						
CCC[C@@H](O)C[C@@H]1CCC[C@H](C[C@@H](O)CC)N1C		> 100 µM	45.1 µM	> 100 µM	> 100 µM		> 100 µM	> 100 µM	> 100 µM	> 100 µM	> 100 µM						
COc1ccc(N2C(=O)C3c4[nH]c5ccccc5c4C4CCC(C(C)(C)C)CC4C3C2=O)c(C)c1 (configuration not stated)	> 100 µM	> 100 µM	> 100 µM	> 100 µM	> 100 µM	> 100 µM		> 100 µM	> 100 µM	> 100 µM	> 100 µM						
C=C(Br)C(C)(Cl)CCC(Br)C(C)(C)Cl (configuration not stated)		> 100 µM	> 100 µM	> 100 µM	39.9 µM	> 100 µM	38 µM	> 100 µM	> 100 µM	66.2 µM	> 100 µM						
C(/c1ccco1)=c1/nc(-c2ccccc2)n2c1nc1ccccc12		> 100 µM	> 100 µM	> 100 µM	> 100 µM	> 100 µM	> 100 µM	> 100 µM	> 100 µM	> 100 µM	> 100 µM						
CCOC(=O)Nn1c(C)nnc1-c1ccccc1		> 100 µM	> 100 µM	> 100 µM	> 100 µM	> 100 µM	> 100 µM	> 100 µM	> 100 µM	> 100 µM	> 100 µM						
O=C1OCC(O)=C1C(c1ccc(Cl)cc1)c1cc2c(cc1O)OCO2 (configuration not stated)	> 100 µM	> 100 µM	> 100 µM	> 100 µM	> 100 µM	> 100 µM	> 100 µM	> 100 µM	> 100 µM	> 100 µM							
COc1ccc2c(=O)c(O)c(-c3ccc(OC)c(OC)c3)oc2c1		> 100 µM	> 100 µM	45.8 µM		> 100 µM	> 100 µM	> 100 µM	0.599 µM								
O=C(Cc1cccs1)N[C@@H]1C(=O)N2C(C(=O)OC(c3ccccc3)c3ccccc3)=C(CO)CS[C@H]12				> 100 µM	> 100 µM	> 100 µM	> 100 µM	> 100 µM	> 100 µM	96.9 µM	> 100 µM						
CCCN=C1CCN(Cc2ccccc2)c2ccccc2N1	27.5 µM	90.1 µM	36.8 µM	> 100 µM	> 100 µM	36.3 µM		31.3 µM	> 100 µM	96.1 µM	41.5 µM						
N=c1n(C(=O)N2CCCC2)c2cc(Cl)ccc2n1C1=NCCN1		> 100 µM	> 100 µM	> 100 µM	> 100 µM	> 100 µM	> 100 µM	> 100 µM	> 100 µM	> 100 µM							
CCOC(=O)N1CCC2(CC1)C[C@](C)(C(C)=O)C(C)O2 (some centres not stated)		> 100 µM	> 100 µM	> 100 µM	> 100 µM	> 100 µM	> 100 µM	> 100 µM	> 100 µM	> 100 µM	> 100 µM						

SMILES	TGI [1]	TGI [2]	TGI [3]	TGI [4]	TGI [5]	TGI [6]	TGI [7]	TGI [8]	TGI [9]	TGI [10]	TGI [11]	GI50 [11]	GI50 [3]	GI50 [4]	GI50 [6]	GI50 [7]	GI50 [10]
O=C(O)c1cccc2c1/C(=N/Nc1ccccc1)CC2		> 100 µM	> 100 µM	> 100 µM	> 100 µM	> 100 µM	> 100 µM	> 100 µM	> 100 µM	98.9 µM	> 100 µM						
COc1ccc(C2c3cc4c(cc3OC(NNS(=O)(=O)c3ccc(C)cc3)C2C)OCO4)cc1 (configuration not stated)	> 100 µM	> 100 µM	> 100 µM	> 100 µM	> 100 µM	> 100 µM	> 100 µM	> 100 µM		> 100 µM	> 100 µM						
O=c1[nH][nH]c(=O)n1Cc1ccccc1Cn1c(=O)[nH][nH]c1=O	> 100 µM	> 100 µM	> 100 µM	> 100 µM	> 100 µM	> 100 µM	> 100 µM	> 100 µM		> 100 µM	> 100 µM						
Cc1ccc(SCC(CSCCO)OCn2cnc3c2NC(N)=NC32OCCO2)cc1 (configuration not stated)	> 100 µM	> 100 µM	> 100 µM	> 100 µM	> 100 µM	> 100 µM	> 100 µM	> 100 µM	> 100 µM		> 100 µM						
O=c1[nH]cc(N=Cc2cc(Cl)cc(Cl)c2O)c(=O)[nH]1		60.8 µM	47.4 µM	> 100 µM	62.2 µM	> 100 µM		47.8 µM	57.2 µM	62.1 µM	75.3 µM						
N.N.N.N.O=[N+]([O-])[O-].[Co+3].[N-]=[N+]=[N-].[N-]=[N+]=[N-]	> 100 µM	> 100 µM	> 100 µM	> 100 µM	> 100 µM	> 100 µM	> 100 µM	> 100 µM	> 100 µM		> 100 µM						
COc1ccc(C(OCC2OC(n3cc(C)c(=O)[nH]c3=O)CC2n2cc(Cn3cc(I)c(=O)[nH]c3=O)nn2)(c2ccccc2)c2ccccc2)cc1 (configuration not stated)	> 100 µM	> 100 µM	> 100 µM	> 100 µM	> 100 µM		> 100 µM	> 100 µM	> 100 µM	> 100 µM	> 100 µM						
CCOc1cc2c(cc1O)/C(=N\OC)C[C@@H]1[C@@H]2CC[C@]2(C)[C@@H](O)CC[C@@H]12	0.21 µM	15.3 µM	> 43.3 µM	> 100 µM		37.3 µM	16.7 µM	21.8 µM	> 100 µM	0.654 µM	> 39.2 µM						
COc1cc([C@@H]2c3cc4c(cc3[C@@H](Nc3ccc([N+](=O)[O-])cc3C(=O)c3ccccc3)[C@H]3COC(=O)[C@H]23)OCO4)cc(OC)c1OC	> 100 µM	> 100 µM	> 100 µM	> 100 µM	> 100 µM		> 100 µM	> 100 µM	> 100 µM	> 100 µM	> 28.6 µM						
COc1cc2c(cc1OC)C(c1ccccc1CCCCl)=NCC2	> 100 µM	> 100 µM	> 100 µM	> 100 µM	> 100 µM	> 100 µM		> 100 µM	> 100 µM	> 100 µM	> 100 µM						
CC(C)CCCCCCCCCCCCC(=O)NCC(=O)NC1C(C)OC(Nc2ncnc3c2ncn3C)C(O)C1O (configuration not stated)	27.9 µM	> 100 µM	> 100 µM			> 100 µM	> 100 µM		> 100 µM	15.2 µM	> 100 µM						
CC[C@@]1(O)C(=O)OCc2c1cc1n(c2=O)Cc2c-1nc1ccccc1c2/C=N\NC(=O)CN	6.21 µM	> 49.7 µM	16.7 µM	> 100 µM	5.7 µM	4.66 µM	1.36 µM		> 100 µM	3.54 µM	1.04 µM						
COc1cc([C@@H]2OCC3C(c4ccc5c(c4)OCO5)OCC32)cc(OC)c1OC (some centres not stated)	> 100 µM	> 100 µM	> 100 µM		> 100 µM	> 100 µM	> 100 µM	> 100 µM	> 100 µM	> 100 µM	> 100 µM						
N#CN=C(N(Cc1ccccc1)Cc1ccccc1)N(Cc1ccccc1)Cc1ccccc1	> 100 µM	> 100 µM	> 100 µM			> 100 µM	> 100 µM	> 100 µM		> 100 µM							
O=[N+]([O-])/C(C(Cl)=C(Cl)Cl)=C(\SCc1ccccc1)N1CCCCC1		82.4 µM	74.3 µM	> 100 µM	36.3 µM	78 µM	35 µM	45.6 µM	51.5 µM	53.2 µM	42.1 µM						
Clc1cc(OC2C3CC4CC(C3)CC2C4)nc(Cl)n1 (configuration not stated)	86.7 µM	30.5 µM	49.1 µM	> 100 µM	33.5 µM	31.6 µM	14.4 µM	32.5 µM	34.3 µM		31 µM						
N#CC1=C(N)N(c2ccccc2)C(c2ccco2)C1(C#N)C#N (configuration not stated)	66.8 µM	37.1 µM	> 100 µM	31.5 µM	35.1 µM		31.1 µM	43.4 µM	49 µM	42 µM	38.9 µM						
O=C1C(=Cc2ccc(O)cc2)N=C(c2ccccc2)N1n1c(-c2ccccc2)nc2ccccc2c1=O	> 100 µM	> 100 µM	> 100 µM	> 100 µM	> 100 µM		> 100 µM	> 100 µM		> 100 µM	> 100 µM						
c1ccc(N=C2SC3=Nc4cccc5cccc(c45)N3C2=Nc2ccccc2)cc1	> 100 µM	> 100 µM				> 100 µM		> 100 µM		> 100 µM	> 100 µM						
Clc1ccc(/C=C/c2nc3ccccc3s2)cc1Cl	40.9 µM	> 100 µM	> 100 µM	> 100 µM	32.1 µM	> 100 µM	3.12 µM	> 100 µM	37.3 µM		> 100 µM						
COC(=O)[C@H]1CO[C@@H](C(C)(C)C)N1C(=O)N1C=CC(=O)C[C@@H]1C	> 100 µM	> 100 µM	> 100 µM	> 100 µM	> 100 µM		> 100 µM			> 100 µM	> 100 µM						
